Laboratory results taken from ChEMBL document CHEMBL1201862, “PubChem BioAssay data set” (2004).
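Test compounds were applied to cells in 96-well plates for 48 hours at 5 doses. GI50: concentration for 50% inhibition of growth.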 Active and inactive are the calls of the source. Cut-off read from the data, not from the text of the source: active = GI50 up to about 1.1 µM and inactive = higher.

Tests used:
Assay in all cases: NCI tumour cell line growth inhibition, 48 h
UACC-62 = test system: UACC-62
K562 = test system: K562
SF-268 = test system: SF-268
A549 = test system: A549
HOP-62 = test system: HOP-62
OVCAR-4 = test system: OVCAR-4
COLO 205 = test system: COLO 205
HL-60 = test system: HL-60
UACC-257 = test system: UACC-257
NCI-H522 = test system: NCI-H522
SF-295 = test system: SF-295
IGROV-1 = test system: IGROV-1
CCRF-CEM = test system: CCRF-CEM
HCC 2998 = test system: HCC 2998
SK-MEL-5 = test system: SK-MEL-5
MCF7 = test system: MCF7
SK-MEL-2 = test system: SK-MEL-2
SN12C = test system: SN12C
MOLT-4 = test system: MOLT-4
UO-31 = test system: UO-31

| SMILES | GI50 (UACC-62) | GI50 (K562) | GI50 (SF-268) | GI50 (A549) | GI50 (HOP-62) | GI50 (OVCAR-4) | GI50 (COLO 205) | GI50 (HL-60) | GI50 (UACC-257) | GI50 (NCI-H522) | GI50 (SF-295) | GI50 (IGROV-1) | GI50 (CCRF-CEM) | GI50 (HCC 2998) | GI50 (SK-MEL-5) | GI50 (MCF7) | GI50 (SK-MEL-2) | GI50 (SN12C) | GI50 (MOLT-4) | GI50 (UO-31) |
| --- | --- | --- | --- | --- | --- | --- | --- | --- | --- | --- | --- | --- | --- | --- | --- | --- | --- | --- | --- | --- |
| COc1ccc2c(c1)CCc1cc(C(N)=O)c3nnnn3c1-2 | 1.67 µM (inactive) | > 96.6 µM (inactive) | 2.98 µM (inactive) | > 100 µM (inactive) | 25.5 µM (inactive) | > 81.3 µM (inactive) | > 100 µM (inactive) | > 100 µM (inactive) | 85.5 µM (inactive) | 27.9 µM (inactive) | 44.1 µM (inactive) | 39.3 µM (inactive) | > 50.1 µM (inactive) | 39.8 µM (inactive) | > 100 µM (inactive) | > 100 µM (inactive) | > 42.1 µM (inactive) | 99.8 µM (inactive) | > 38.8 µM (inactive) | – |
| O=C1NC(=O)C(COCc2ccccc2)C2=C1SCCC2 (centres undefined) | – | > 100 µM (inactive) | > 100 µM (inactive) | > 100 µM (inactive) | > 100 µM (inactive) | > 100 µM (inactive) | > 100 µM (inactive) | > 100 µM (inactive) | > 100 µM (inactive) | > 100 µM (inactive) | > 100 µM (inactive) | > 100 µM (inactive) | > 100 µM (inactive) | > 100 µM (inactive) | > 100 µM (inactive) | > 100 µM (inactive) | > 100 µM (inactive) | – | > 100 µM (inactive) | > 100 µM (inactive) |
| COc1cc(/C=C2\C(=O)N(c3cccc(Cl)c3)C(c3ccccc3)S2(=O)=O)cc(OC)c1OC (centres undefined) | 32.7 µM (inactive) | 22.3 µM (inactive) | 55.8 µM (inactive) | 70.8 µM (inactive) | 85.7 µM (inactive) | 85.5 µM (inactive) | > 100 µM (inactive) | 36.4 µM (inactive) | 76 µM (inactive) | 17.8 µM (inactive) | 36.4 µM (inactive) | – | 18.2 µM (inactive) | > 100 µM (inactive) | 39.2 µM (inactive) | 33.9 µM (inactive) | > 100 µM (inactive) | 72.8 µM (inactive) | 23.9 µM (inactive) | 32.3 µM (inactive) |
| CCOC(=O)c1sc2nc(SC)nc3c2c1NCN3c1ccc2c(c1)OCCCO2 | > 100 µM (inactive) | > 100 µM (inactive) | 13.3 µM (inactive) | 9.48 µM (inactive) | 27.9 µM (inactive) | > 100 µM (inactive) | – | > 100 µM (inactive) | > 100 µM (inactive) | > 100 µM (inactive) | 1.67 µM (inactive) | > 100 µM (inactive) | > 100 µM (inactive) | 26.3 µM (inactive) | 12.2 µM (inactive) | > 100 µM (inactive) | > 100 µM (inactive) | 49.7 µM (inactive) | > 100 µM (inactive) | 37.9 µM (inactive) |
| c1cncc(CC2(c3cc4ccccc4[nH]3)OCCO2)c1 | > 100 µM (inactive) | – | > 100 µM (inactive) | 81.8 µM (inactive) | – | > 100 µM (inactive) | > 100 µM (inactive) | 37.2 µM (inactive) | 66.5 µM (inactive) | > 100 µM (inactive) | > 100 µM (inactive) | 22.1 µM (inactive) | > 100 µM (inactive) | > 100 µM (inactive) | 61.8 µM (inactive) | > 100 µM (inactive) | > 100 µM (inactive) | > 100 µM (inactive) | – | 40.6 µM (inactive) |
| CC(=O)O[C@H]1C[C@H](O[C@H]2[C@@H](O)C[C@H](O[C@H]3[C@@H](O)C[C@H](O[C@H]4CC[C@@]5(C)[C@H](CC[C@@H]6[C@@H]5C[C@@H](O)[C@]5(C)[C@@H](C7=CC(=O)OC7)CC[C@]65O)C4)O[C@@H]3C)O[C@@H]2C)O[C@H](C)[C@H]1O[C@@H]1O[C@H](CO)[C@@H](O)[C@H](O)[C@H]1O [LANATOSIDE C] | 0.21 µM (active) | 0.04 µM (active) | 0.0436 µM (active) | 0.0146 µM (active) | 0.0264 µM (active) | 0.0465 µM (active) | 0.136 µM (active) | 0.0332 µM (active) | 0.238 µM (active) | 0.0137 µM (active) | 0.0426 µM (active) | 0.0435 µM (active) | – | 0.148 µM (active) | 0.0465 µM (active) | 0.051 µM (active) | 0.165 µM (active) | – | 0.018 µM (active) | 0.0559 µM (active) |
| Cc1cc(S(=O)(=O)Nc2nnc3c(C(F)(F)F)cc(Cl)cn23)c(S)cc1Cl | 41.5 µM (inactive) | > 100 µM (inactive) | > 100 µM (inactive) | > 100 µM (inactive) | > 100 µM (inactive) | 40.3 µM (inactive) | > 100 µM (inactive) | > 100 µM (inactive) | > 100 µM (inactive) | > 100 µM (inactive) | – | > 100 µM (inactive) | > 100 µM (inactive) | > 100 µM (inactive) | > 100 µM (inactive) | > 100 µM (inactive) | 64.4 µM (inactive) | > 100 µM (inactive) | 74 µM (inactive) | 33 µM (inactive) |
